The text below walks through data of US9550772B2, “Azaindole derivatives as multi kinase inhibitors” (ORIBASE PHARMA, priority 2012, dated 2017).

Experiment [1] deals with T1, BRAF (Homo sapiens, UniProt P15056).
T1 construct: purchased Invitrogen
As to the kind of experiment: In vitro kinase assay (Z'-LYTE, Invitrogen). It counts as biochemical. Conditions: compound at 100 nM, ATP Km apparent, read-out: % of inhibition of the kinase compared to the control. The method in brief:
(§1)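 Single-concentration screen (100 nM) run by Z′-LYTE on human recombinant kinase, ATP at apparent Km, 50 mM HEPES pH 7.5 buffer, 1% DMSO final.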

Experiment [2] has as its target T2, EGFR (ErbB1) (Homo sapiens, UniProt P00533).
T2 construct: purchased Invitrogen
Nature of the experiment: In vitro kinase assay (Z'-LYTE, Invitrogen). It is filed as biochemical. The following applies: compound at 100 nM, ATP Km apparent, read-out: % of inhibition of the kinase compared to the control. Summed up:
as §1

The target in experiment [3] is T3, EGFR (ErbB1) T790M L858R (Homo sapiens, UniProt P00533, L858R/T790M).
T3 construct: purchased Invitrogen
T3 sequence (P00533 25-1210 T790M/L858R): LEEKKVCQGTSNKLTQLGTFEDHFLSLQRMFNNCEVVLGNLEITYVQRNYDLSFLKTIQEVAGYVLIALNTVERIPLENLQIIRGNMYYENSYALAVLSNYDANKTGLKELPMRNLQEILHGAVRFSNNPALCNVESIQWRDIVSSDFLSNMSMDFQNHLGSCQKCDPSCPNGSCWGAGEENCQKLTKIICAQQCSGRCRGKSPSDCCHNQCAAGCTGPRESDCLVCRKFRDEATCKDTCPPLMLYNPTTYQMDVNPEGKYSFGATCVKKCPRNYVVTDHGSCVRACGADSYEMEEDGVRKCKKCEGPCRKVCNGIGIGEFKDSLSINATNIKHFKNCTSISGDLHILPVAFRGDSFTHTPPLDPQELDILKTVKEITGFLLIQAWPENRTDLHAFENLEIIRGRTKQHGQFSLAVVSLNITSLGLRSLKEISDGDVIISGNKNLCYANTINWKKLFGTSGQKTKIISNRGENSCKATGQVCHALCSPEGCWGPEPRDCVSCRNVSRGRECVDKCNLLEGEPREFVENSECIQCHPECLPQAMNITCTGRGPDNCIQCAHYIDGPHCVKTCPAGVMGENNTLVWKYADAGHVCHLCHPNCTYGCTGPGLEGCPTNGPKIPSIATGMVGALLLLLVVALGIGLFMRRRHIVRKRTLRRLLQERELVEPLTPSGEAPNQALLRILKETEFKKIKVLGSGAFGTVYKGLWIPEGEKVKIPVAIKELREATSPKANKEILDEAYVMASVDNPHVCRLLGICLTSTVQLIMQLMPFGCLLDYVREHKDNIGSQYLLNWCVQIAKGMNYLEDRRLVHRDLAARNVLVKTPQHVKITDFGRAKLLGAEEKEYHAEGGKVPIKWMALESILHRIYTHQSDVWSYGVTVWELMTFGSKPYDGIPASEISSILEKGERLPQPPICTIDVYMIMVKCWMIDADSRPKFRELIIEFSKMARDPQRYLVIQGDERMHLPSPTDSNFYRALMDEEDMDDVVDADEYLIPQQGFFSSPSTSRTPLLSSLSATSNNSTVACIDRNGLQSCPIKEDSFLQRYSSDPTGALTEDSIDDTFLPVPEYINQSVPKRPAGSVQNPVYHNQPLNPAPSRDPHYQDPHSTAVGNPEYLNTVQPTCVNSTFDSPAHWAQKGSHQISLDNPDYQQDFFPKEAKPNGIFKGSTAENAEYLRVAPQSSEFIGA
Nature of the experiment: In vitro kinase assay (Z'-LYTE, Invitrogen). It is filed as biochemical. The following applies: compound at 100 nM, ATP Km apparent, read-out: % of inhibition of the kinase compared to the control. The method in brief:
as §1

The target in experiment [4] is T4, FGFR2 (Homo sapiens, UniProt P21802).
T4 construct: purchased Invitrogen
T4 sequence (P21802 22-821): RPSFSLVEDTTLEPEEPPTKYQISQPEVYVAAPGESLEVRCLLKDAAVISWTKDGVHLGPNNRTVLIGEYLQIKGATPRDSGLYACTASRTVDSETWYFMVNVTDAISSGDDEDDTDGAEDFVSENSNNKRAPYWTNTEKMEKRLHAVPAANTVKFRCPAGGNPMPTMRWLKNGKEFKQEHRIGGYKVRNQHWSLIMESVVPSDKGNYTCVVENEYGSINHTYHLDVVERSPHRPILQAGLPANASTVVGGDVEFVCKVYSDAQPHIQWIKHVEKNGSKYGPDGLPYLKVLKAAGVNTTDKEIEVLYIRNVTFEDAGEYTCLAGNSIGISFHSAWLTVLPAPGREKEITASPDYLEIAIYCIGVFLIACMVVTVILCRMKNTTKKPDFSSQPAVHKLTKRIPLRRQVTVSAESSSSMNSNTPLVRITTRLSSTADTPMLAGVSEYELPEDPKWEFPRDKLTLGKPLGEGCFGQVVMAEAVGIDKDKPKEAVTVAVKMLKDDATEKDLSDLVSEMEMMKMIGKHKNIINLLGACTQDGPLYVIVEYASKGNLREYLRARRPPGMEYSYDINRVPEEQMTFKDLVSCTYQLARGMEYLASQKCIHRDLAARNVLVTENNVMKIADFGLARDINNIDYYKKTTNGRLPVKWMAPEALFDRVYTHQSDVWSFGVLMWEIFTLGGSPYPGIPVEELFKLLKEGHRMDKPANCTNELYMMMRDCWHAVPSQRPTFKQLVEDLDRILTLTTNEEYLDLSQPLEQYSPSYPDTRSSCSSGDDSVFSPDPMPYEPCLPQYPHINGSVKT
Nature of the experiment: In vitro kinase assay (Z'-LYTE, Invitrogen). Conditions: compound at 100 nM, ATP Km apparent, read-out: % of inhibition of the kinase compared to the control. It is filed as biochemical. Summed up:
as §1

Experiment [5] has as its target T5, KDR (VEGFR2) (Homo sapiens, UniProt P35968).
T5 construct: purchased Invitrogen
As to the kind of experiment: In vitro kinase assay (Z'-LYTE, Invitrogen). It counts as biochemical. The following applies: compound at 100 nM, ATP Km apparent, read-out: % of inhibition of the kinase compared to the control. The method in brief:
as §1

Experiment [6] deals with T6, PDGFRA (PDGFR alpha) (Homo sapiens, UniProt P16234).
T6 construct: purchased Invitrogen
T6 sequence (P16234 24-1089): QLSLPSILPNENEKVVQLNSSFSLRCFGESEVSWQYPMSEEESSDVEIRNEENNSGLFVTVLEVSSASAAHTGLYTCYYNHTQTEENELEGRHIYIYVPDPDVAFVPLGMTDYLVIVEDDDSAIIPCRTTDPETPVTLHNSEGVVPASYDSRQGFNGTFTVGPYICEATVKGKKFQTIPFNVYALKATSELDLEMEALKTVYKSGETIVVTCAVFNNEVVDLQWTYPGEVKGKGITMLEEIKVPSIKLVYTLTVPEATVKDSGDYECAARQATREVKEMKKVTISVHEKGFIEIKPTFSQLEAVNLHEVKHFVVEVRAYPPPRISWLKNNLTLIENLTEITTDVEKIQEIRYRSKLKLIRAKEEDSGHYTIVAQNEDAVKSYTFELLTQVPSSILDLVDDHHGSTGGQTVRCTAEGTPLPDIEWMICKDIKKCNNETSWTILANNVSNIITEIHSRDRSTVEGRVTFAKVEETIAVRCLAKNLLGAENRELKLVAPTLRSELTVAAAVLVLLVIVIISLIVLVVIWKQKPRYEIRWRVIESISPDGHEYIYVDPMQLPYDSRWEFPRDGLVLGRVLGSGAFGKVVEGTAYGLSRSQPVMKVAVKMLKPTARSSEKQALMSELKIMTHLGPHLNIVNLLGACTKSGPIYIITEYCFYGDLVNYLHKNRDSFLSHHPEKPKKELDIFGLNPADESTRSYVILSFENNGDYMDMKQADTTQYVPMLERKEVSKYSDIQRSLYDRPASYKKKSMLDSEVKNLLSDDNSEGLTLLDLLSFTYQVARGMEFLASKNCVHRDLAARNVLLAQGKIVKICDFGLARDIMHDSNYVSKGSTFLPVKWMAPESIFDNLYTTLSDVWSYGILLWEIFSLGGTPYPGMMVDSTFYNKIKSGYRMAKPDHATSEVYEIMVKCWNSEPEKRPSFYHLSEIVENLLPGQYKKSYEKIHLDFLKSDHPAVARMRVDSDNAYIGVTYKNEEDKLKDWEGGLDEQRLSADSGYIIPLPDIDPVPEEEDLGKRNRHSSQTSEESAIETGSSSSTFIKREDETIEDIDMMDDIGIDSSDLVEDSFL
As to the kind of experiment: In vitro kinase assay (Z'-LYTE, Invitrogen). It is filed as biochemical. The following applies: compound at 100 nM, ATP Km apparent, read-out: % of inhibition of the kinase compared to the control. Summed up:
as §1

For experiment [7], the target named is T7, SRC (Homo sapiens, UniProt P12931).
T7 construct: purchased Invitrogen
T7 sequence (P12931 whole entry): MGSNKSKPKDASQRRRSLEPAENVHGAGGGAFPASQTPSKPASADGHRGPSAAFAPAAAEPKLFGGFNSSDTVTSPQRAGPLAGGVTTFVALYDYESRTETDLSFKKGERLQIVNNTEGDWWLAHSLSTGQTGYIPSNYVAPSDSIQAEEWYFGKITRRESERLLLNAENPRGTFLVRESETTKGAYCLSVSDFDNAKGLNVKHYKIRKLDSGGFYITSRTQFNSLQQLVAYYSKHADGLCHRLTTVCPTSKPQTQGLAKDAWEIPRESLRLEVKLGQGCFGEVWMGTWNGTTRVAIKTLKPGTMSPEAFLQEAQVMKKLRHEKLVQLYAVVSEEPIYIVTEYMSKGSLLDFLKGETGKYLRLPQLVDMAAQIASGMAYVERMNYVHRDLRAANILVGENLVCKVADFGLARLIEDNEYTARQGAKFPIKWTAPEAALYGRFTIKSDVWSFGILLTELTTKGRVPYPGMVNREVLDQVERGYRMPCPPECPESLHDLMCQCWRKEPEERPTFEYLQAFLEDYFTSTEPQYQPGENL
Nature of the experiment: In vitro kinase assay (Z'-LYTE, Invitrogen). The following applies: compound at 100 nM, ATP Km apparent, read-out: % of inhibition of the kinase compared to the control. It is filed as biochemical. Summed up: as §1

The test system of experiment [8] is HUVEC cells. As to the kind of experiment: In vitro cell proliferation assay (MTT). It counts as cell-based. The following applies: Homo sapiens, 72 hr, read-out: EC50, anti-proliferative activity. The method in brief: (§2)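 Duplicate 72 hr treatments spanning 10 nM–3 μM compound preceded MTT measurement of growth. Sigmoidal fitting yielded EC50, with normalization against DMSO controls set at 0% and 1% SDS controls set at 100%.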

The test system of experiment [9] is HepG2 cell line. Nature of the experiment: In vitro cell proliferation assay (MTT). Conditions: Homo sapiens, HepG2, 72 hr, EC50 ≧ 1 μM, read-out: EC50, anti-proliferative activity. It counts as cell-based. Summed up: as §2
Experiment [10] relates to HuCCT1 cell line. Nature of the experiment: In vitro cell proliferation assay (MTT). It is filed as cell-based. Conditions: Homo sapiens, HuCCT-1, HuCCT1, 72 hr, read-out: EC50, anti-proliferative activity. Summed up:
as §2

Experiment [11] relates to HuH6 Clone 5 cell line. Nature of the experiment: In vitro cell proliferation assay (MTT). The following applies: HUH-6-clone5, HuH6 Clone 5, 72 hr, EC50 ≧ 1 μM, read-out: EC50, anti-proliferative activity. It is filed as cell-based. Summed up:
as §2

Experiment [12] deals with HuH7 cell line. As to the kind of experiment: In vitro cell proliferation assay (MTT). It is filed as cell-based. The following applies: Homo sapiens, Huh-7, HuH7, 72 hr, read-out: EC50, anti-proliferative activity. The method in brief: as §2
For experiment [13], the system named is A549 cell line. As to the kind of experiment: In vitro cell proliferation assay (MTT). The following applies: Homo sapiens, A549, 72 h, EC50 ≧ 1 μM, read-out: EC50, anti-proliferative activity. It counts as cell-based. Summed up: as §2
Experiment [14] has as its system HT29 cell line. As to the kind of experiment: In vitro cell proliferation assay (MTT). It is filed as cell-based. The following applies: Homo sapiens, HT-29, HT29, 72 hr, EC50 ≧ 1 μM, read-out: EC50, anti-proliferative activity. Summed up:
as §2

The subject of experiment [15] is H1975 cell line. Nature of the experiment: In vitro cell proliferation assay (MTT). It is filed as cell-based. The following applies: Homo sapiens, NCI-H1975, H1975, 72 hr, EC50 ≧ 1 μM, read-out: EC50, anti-proliferative activity. Summed up: as §2
Experiment [16] has as its system MDA-MB-231 cell line. As to the kind of experiment: In vitro cell proliferation assay (MTT). It counts as cell-based. The following applies: Homo sapiens, MDA-MB-231, 72 hr, EC50 ≧ 1 μM, read-out: EC50, anti-proliferative activity. The method in brief: as §2

As a reminder, the inhibition is the change of the read-out against control, counted positive when it falls. For orientation: EC50 means the midpoint of the concentration-response curve.

Like-named read-outs stand apart in the source and are kept apart here. Some results are limits rather than exact numbers.

T2 sequence (P00533 25-1210): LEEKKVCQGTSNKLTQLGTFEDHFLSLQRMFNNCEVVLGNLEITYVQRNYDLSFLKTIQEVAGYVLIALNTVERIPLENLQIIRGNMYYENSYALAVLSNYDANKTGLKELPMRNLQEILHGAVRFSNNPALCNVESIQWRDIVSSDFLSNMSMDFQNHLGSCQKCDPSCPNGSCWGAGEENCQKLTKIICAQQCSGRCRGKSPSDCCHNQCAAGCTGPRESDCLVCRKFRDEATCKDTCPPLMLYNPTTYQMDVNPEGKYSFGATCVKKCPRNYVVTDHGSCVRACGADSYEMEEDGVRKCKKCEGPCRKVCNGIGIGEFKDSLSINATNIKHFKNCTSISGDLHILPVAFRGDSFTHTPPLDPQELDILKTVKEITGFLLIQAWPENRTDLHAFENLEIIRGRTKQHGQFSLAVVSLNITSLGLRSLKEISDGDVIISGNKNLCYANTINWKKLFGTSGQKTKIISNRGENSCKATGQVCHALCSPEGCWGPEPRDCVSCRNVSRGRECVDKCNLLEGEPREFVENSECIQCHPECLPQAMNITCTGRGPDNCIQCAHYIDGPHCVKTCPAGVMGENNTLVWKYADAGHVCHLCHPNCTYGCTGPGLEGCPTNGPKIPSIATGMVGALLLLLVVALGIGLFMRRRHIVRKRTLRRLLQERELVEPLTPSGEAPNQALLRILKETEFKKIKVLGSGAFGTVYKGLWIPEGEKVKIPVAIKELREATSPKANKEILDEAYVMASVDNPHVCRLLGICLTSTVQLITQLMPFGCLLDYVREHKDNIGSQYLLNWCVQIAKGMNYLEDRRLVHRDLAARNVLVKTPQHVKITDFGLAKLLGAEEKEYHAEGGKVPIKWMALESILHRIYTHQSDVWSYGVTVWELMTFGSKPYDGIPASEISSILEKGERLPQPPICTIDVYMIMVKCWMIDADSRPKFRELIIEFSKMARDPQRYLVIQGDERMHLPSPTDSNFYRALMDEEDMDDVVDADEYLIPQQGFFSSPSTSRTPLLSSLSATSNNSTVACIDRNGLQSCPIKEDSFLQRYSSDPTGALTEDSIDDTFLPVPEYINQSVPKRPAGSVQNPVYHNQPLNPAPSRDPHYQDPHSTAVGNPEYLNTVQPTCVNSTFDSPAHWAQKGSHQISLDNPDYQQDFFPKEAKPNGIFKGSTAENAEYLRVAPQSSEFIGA

Take `COC(=O)c1cc2cc(CNC(=O)c3cc(NC(=O)c4ccc(CN5CCC(N(C)C)C5)c(C(F)(F)F)c4)ccc3C)cnc2[nH]1` (stereo not shown) [OR0726, 5-({5-[4-(3-Dimethylamino-pyrrolidin-1-ylmethyl)-3-trifluoromethyl-benzoylamino]-2-methyl-benzoylamino}-methyl)-1H-pyrrolo[2,3-b]pyridine-2-carboxylic acid methyl ester]: the inhibition at 0.1 µM in [1], in [2], in [3], in [4], in [5] and in [6] was below 50% throughout. The inhibition at 0.1 µM in experiment [7] is below 50%.
On to `COC(=O)c1cc2cc(CCc3cc(NC(=O)c4ccc(CN5CCC(N(C)C)C5)c(C(F)(F)F)c4)ccc3C)cnc2[nH]1` (stereo not shown) [OR0775, 5-(2-{5-[4-(3-Dimethylamino-pyrrolidin-1-ylmethyl)-3-trifluoromethyl-benzoylamino]-2-methyl-phenyl}-ethyl)-1H-pyrrolo[2,3-b]pyridine-2-carboxylic acid methyl ester], for which the inhibition at 0.1 µM in experiment [1], in experiment [2], in experiment [3], in experiment [4], in experiment [5] and in experiment [6] was at least 50% in each case. The inhibition at 0.1 µM in [7] was at least 50%. Also, the EC50 was 100 to 1000 nM in [8] (100 nM < EC50 < 1 μM); at least 1000 nM in experiment [9]; at least 1000 nM in [10] (EC50 ≧ 1 μM); at least 1000 nM in experiment [11]; 100 to 1000 nM in [12] (100 nM < EC50 < 1 μM).
Take `C#Cc1cccc(Nc2ncnc3cc(OCCOC)c(OCCOC)cc23)c1` [Erlotinib, reference compound]: the EC50 in experiment [13], in experiment [14] and in [8] (EC50 ≧ 1 μM) was at least 1000 nM in each case.
Turning to `COC(=O)c1cc2cc(CNc3cc(NC(=O)c4ccc(CN5CCN(C)CC5)c(C(F)(F)F)c4)ccc3C)cnc2[nH]1` [OR0747, 5-({2-Methyl-5-[4-(4-methyl-piperazin-1-ylmethyl)-3-trifluoromethyl-benzoylamino]-phenylamino}-methyl)-1H-pyrrolo[2,3-b]pyridine-2-carboxylic acid methyl ester], the inhibition at 0.1 µM in experiment [1] was below 50%; in experiment [2] it was at least 50%; in experiment [3], below 50%; in experiment [4], at least 50%; in experiment [5], at least 50%; in experiment [6] it was at least 50%. In addition, the inhibition at 0.1 µM in [7] was at least 50%. In addition, the concentration for a half-maximal effect (EC50) is at least 1000 nM in experiment [13]; at least 1000 nM in [15]; at least 1000 nM in experiment [14]; 100 to 1000 nM in experiment [8] (100 nM < EC50 < 1 μM); at least 1000 nM in experiment [9]; at least 1000 nM in [10] (EC50 ≧ 1 μM).
Consider `COC(=O)c1cc2cc(C=Cc3cc(NC(=O)c4ccc(CN5CCC(N(C)C)C5)c(C(F)(F)F)c4)ccc3C)cnc2[nH]1` (stereo not shown) [OR0778, 5-(2-{5-[4-(3-Dimethylamino-pyrrolidin-1-ylmethyl)-3-trifluoromethyl-benzoylamino]-2-methyl-phenyl}-vinyl)-1H-pyrrolo[2,3-b]pyridine-2-carboxylic acid methyl ester], for which the inhibition at 0.1 µM in experiment [1] is below 50%; in experiment [2], at least 50%; in experiment [4], below 50%; in experiment [5] it was at least 50%; in experiment [6], at least 50%; in experiment [7] it was at least 50%. The 50% effective concentration (EC50) in experiment [8] (EC50 ≧ 1 μM), in experiment [9], in [10] (EC50 ≧ 1 μM), in experiment [11], in experiment [12] (EC50 ≧ 1 μM) and in experiment [16] was at least 1000 nM throughout.
As for `CC(=O)c1cc2cc(C(=O)Nc3cc(NC(=O)c4cc(-n5cnc(C)c5)cc(C(F)(F)F)c4)ccc3C)cnc2[nH]1` [OR0723, 2-Acetyl-1H-pyrrolo[2,3-b]pyridine-5-carboxylic acid {2-methyl-5-[3-(4-methyl-imidazol-1-yl)-5-trifluoromethyl-benzoylamino]-phenyl}-amide], the inhibition at 0.1 µM in [1] was below 50%; in experiment [2], at least 50%; in experiment [3], below 50%; in experiment [4], below 50%; in [5], below 50%; in experiment [6] it was below 50%. Besides, the inhibition at 0.1 µM in experiment [7] was below 50%.
Turning to `CC(=O)c1cc2cc(CCc3cc(NC(=O)c4ccc(CN5CCN(C)CC5)cc4)ccc3C)cnc2[nH]1` [OR0799, N-{3-[2-(2-Acetyl-1H-pyrrolo[2,3-b]pyridin-5-yl)-ethyl]-4-methyl-phenyl}-4-(4-methyl-piperazin-1-ylmethyl)-benzamide], the inhibition at 0.1 µM is at least 50% in experiment [1]; at least 50% in experiment [2]; below 50% in [4]; at least 50% in experiment [5]; at least 50% in experiment [6]; at least 50% in experiment [7]. Moreover, the concentration giving a half-maximal response (EC50) in [8] (100 nM < EC50 < 1 μM) was 100 to 1000 nM; in [9], at least 1000 nM; in experiment [10] (100 nM < EC50 < 1 μM), 100 to 1000 nM; in experiment [11], at least 1000 nM; in experiment [12] (100 nM < EC50 < 1 μM), 100 to 1000 nM.
As to `CNC(=O)c1cc(Oc2ccc(NC(=O)Nc3ccc(Cl)c(C(F)(F)F)c3)cc2)ccn1` [Sorafenib, reference compound], the 50% effective concentration (EC50) in experiment [8] (100 nM < EC50 < 1 μM) was 100 to 1000 nM; in [9] it was 1000 to 3000 nM; in experiment [10] (EC50 ≧ 1 μM), 1000 to 3000 nM; in [11] it was 1000 to 3000 nM; in experiment [12] (EC50 ≧ 1 μM) it was 1000 to 3000 nM.
On to `COC(=O)c1cc2cc(CCc3cc(NC(=O)c4ccc(CN5CCN(C)CC5)cc4)ccc3C)cnc2[nH]1` [OR0834, 5-(2-{2-Methyl-5-[4-(4-methyl-piperazin-1-ylmethyl)-benzoylamino]-phenyl}-ethyl)-1H-pyrrolo[2,3-b]pyridine-2-carboxylic acid methyl ester], for which the inhibition at 0.1 µM in experiment [1] was below 50%; in experiment [2], at least 50%; in experiment [4], below 50%; in [5], at least 50%; in [6], at least 50%; in experiment [7] it was at least 50%. Further, the EC50 in experiment [8] (EC50 ≧ 1 μM), in experiment [9] and in experiment [12] (EC50 ≧ 1 μM) was at least 1000 nM in each case.
`CC(=O)c1cc2cc(CCc3cc(NC(=O)c4cncc(C(F)(F)F)c4)ccc3C)cnc2[nH]1` [OR0800, N-{3-[2-(2-Acetyl-1H-pyrrolo[2,3-b]pyridin-5-yl)-ethyl]-4-methyl-phenyl}-5-trifluoromethyl-nicotinamide]: the inhibition at 0.1 µM is at least 50% in experiment [1]; below 50% in experiment [2]; below 50% in experiment [4]; at least 50% in experiment [5]; at least 50% in experiment [6]; at least 50% in [7]. The EC50 in experiment [8] (100 nM < EC50 < 1 μM) is 100 to 1000 nM; in experiment [9], at least 1000 nM; in [10] (EC50 ≧ 1 μM), at least 1000 nM; in experiment [11] it was at least 1000 nM; in experiment [12] (EC50 ≧ 1 μM), at least 1000 nM.
In the case of `COC(=O)c1cc2cc(CNC(=O)c3cc(NC(=O)c4ccc(CN5CCN(C)CC5)cc4)ccc3C)cnc2[nH]1` [OR0730, 5-({2-Methyl-5-[4-(4-methyl-piperazin-1-ylmethyl)-benzoylamino]-benzoylamino}-methyl)-1H-pyrrolo[2,3-b]pyridine-2-carboxylic acid methyl ester], the inhibition at 0.1 µM in [1], in experiment [2], in experiment [3], in [4], in experiment [5] and in experiment [6] was below 50% in each case. Besides, the inhibition at 0.1 µM in experiment [7] was below 50%.
